Blank lines part the entries; values can stand above or below the compound they belong to. Active and inactive are the calls of the source.
Key:
[1] = biological target: T1, Oxysterols receptor LXR-beta (Homo sapiens, UniProt P55055); assay type: functional, cell-based;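 also: Cell-based luminescence dose-response assay of agonist activity at LXR, run as a confirmatory counterscreen to a daf-12 agonist screen; agonist potency from rising luciferase signal of a Gal4-LXR reporter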
T1 sequence (P55055 whole entry): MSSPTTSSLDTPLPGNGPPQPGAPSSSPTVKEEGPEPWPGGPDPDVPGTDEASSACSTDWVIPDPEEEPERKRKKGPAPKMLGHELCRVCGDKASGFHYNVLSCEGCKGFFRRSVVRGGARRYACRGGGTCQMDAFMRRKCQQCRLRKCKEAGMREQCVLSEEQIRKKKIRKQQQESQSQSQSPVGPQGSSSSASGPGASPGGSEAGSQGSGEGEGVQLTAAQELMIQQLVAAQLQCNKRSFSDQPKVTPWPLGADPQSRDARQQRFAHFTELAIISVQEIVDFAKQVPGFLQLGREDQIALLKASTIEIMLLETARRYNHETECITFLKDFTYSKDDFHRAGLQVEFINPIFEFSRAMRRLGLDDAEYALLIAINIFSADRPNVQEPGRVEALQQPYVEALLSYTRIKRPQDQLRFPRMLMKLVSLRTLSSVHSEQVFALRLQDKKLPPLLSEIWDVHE

[2] = Luminescence-based cell-based high throughput dose response assay to identify activators of the DAF-12 from the parasite S. stercoralis (ssDAF-12).; assay type: functional
[3] = biological target: T1, Oxysterols receptor LXR-beta; assay: LXR agonists, Gal4 luciferase reporter, dose response, counter-screen for ssDAF-12 agonist project, cell-based, luminescence, HEK293, S. stercoralis campaign (AID 720737); assay type: functional; conditions: read-out: IC50 (the source's name)
[4] = cells
[5] = biological target: T2, Alkaline phosphatase, tissue-nonspecific isozyme (Homo sapiens, UniProt P05186)
T2 sequence (P05186 whole entry): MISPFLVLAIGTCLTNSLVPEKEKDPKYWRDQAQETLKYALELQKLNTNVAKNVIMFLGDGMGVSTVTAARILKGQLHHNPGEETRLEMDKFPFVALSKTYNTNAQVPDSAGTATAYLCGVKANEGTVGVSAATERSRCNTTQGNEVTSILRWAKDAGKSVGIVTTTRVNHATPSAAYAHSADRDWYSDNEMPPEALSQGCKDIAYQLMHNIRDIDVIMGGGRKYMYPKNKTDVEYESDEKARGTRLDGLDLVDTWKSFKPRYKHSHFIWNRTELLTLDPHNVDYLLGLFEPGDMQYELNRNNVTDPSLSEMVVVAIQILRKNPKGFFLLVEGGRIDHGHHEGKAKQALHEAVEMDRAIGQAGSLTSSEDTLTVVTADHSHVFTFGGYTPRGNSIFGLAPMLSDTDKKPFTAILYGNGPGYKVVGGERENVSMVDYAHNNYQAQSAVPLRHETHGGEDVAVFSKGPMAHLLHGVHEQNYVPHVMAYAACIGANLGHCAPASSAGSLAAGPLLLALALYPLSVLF

[6] = biological target: Acyl-homoserine lactone acylase PvdQ (Pseudomonas aeruginosa (strain LESB58), UniProt Q9I194); assay: PvdQ acylase enzyme activity blockers – biochemical, fluorescence, plate reader and imaging, cherry-picks, dose response (AID 493231)
[7] = biological target: Beta-galactosidase (Escherichia coli, UniProt Q8VNN2); assay: detection-enzyme interference by beta-gal modulators – biochemical, E. coli enzyme, set 3, artefact control for CCR6 antagonist project, dose response (AID 504712); assay type: functional
[8] = biological target: C-C chemokine receptor type 6 (Homo sapiens, UniProt P51684); assay: antagonism of CCR6 beta-arrestin recruitment – cell-based, luminescent beta-arrestin readout, dose response (AID 504728); assay type: functional
[9] = blockers of bursicon-stimulated LGR2 cAMP reporter – cell-based, HEK293, CRE-luciferase reporter, cherry pick, set 2, dose response (AID 743343); assay type: functional;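 also: transfected cells were stimulated with diluted bursicon conditioned medium after compound addition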
[10] = toxicity toward HepG2 liver cells – cell-based, plate reader, cherry-pick, antagonist series, cytotoxicity control, dose response (AID 743416); assay type: functional
[11] = viability loss in HEK293 cells – cell-based, plate reader, cherry-picked samples, cytotoxicity control, dose response (AID 743446); assay type: functional
[12] = blockade of melanocortin 4 receptor signaling – cell-based, plate reader, cherry pick, counter-screen for LGR2 antagonist project, dose response (AID 743444); assay type: functional;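 also: transfected HEK 293 cells stimulated with alpha-MSH peptide; potency of inhibitors of the alpha-MSH evoked signal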
[13] = biological target: T3, Microphthalmia-associated transcription factor (Homo sapiens, UniProt O75030); assay: reducers of TRPM1 reporter luminescence, concentration series – cell-based, SK-MEL-5, cherry-picked, set 3, MITF inhibitor project, dose response (AID 493073); assay type: functional;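 also: SK-MEL-5 melanoma cells with luciferase driven by the MITF target TRPM1 promoter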
T3 sequence (O75030 whole entry): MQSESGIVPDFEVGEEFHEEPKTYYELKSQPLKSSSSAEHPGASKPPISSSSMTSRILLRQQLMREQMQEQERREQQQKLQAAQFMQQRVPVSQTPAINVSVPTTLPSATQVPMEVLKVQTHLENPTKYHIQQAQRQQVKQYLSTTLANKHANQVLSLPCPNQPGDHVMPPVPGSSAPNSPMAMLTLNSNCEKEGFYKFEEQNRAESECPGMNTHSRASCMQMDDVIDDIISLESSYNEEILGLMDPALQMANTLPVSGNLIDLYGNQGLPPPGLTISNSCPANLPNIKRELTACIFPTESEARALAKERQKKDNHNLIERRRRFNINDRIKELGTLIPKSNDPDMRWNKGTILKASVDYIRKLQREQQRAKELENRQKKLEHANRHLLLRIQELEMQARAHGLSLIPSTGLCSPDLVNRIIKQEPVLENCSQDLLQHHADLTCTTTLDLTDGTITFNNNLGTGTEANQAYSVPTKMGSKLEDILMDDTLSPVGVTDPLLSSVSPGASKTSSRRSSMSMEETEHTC

[14] = A549 cell cytotoxicity, dose response, cytotoxicity control, plate reader, cherry-pick, antagonist series (AID 743412); assay type: functional, cell-based
[15] = biological target: X-box-binding protein 1 (Homo sapiens, UniProt P17861); assay type: functional, Cricetulus griseus;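 also: confirmatory dose-response counter-screen serving a CHOP assay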
[16] = biological target: T4, Voltage-gated N-type calcium channel alpha-1B subunit/Amyloid beta A4 precursor protein-binding family A member 1 (Homo sapiens, UniProt Q00975+Q02410); assay: disruptors of Mint-PDZ/N-type channel peptide interaction – biochemical, HTRF, SAR follow-up (AID 2489); assay type: functional
[17] = biological target: T4, Voltage-gated N-type calcium channel alpha-1B subunit/Amyloid beta A4 precursor protein-binding family A member 1; assay: disruptors of Mint-PDZ/N-type channel peptide interaction – biochemical, HTRF, set 2, SAR follow-up (AID 434980); assay type: functional
[18] = biological target: Voltage-dependent T-type calcium channel subunit alpha-1H (Homo sapiens, UniProt O95180); assay type: functional;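 also: channel activity triggered by adding a high calcium stimulation buffer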
[19] = viability of PTEN-deleted HCT116 cells – cell-based, HCT116 PTEN knockout, dose response (AID 1047); assay type: functional;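 also: HCT116 colon tumor cells with PTEN knocked out; cells exposed to compound for 60 hours before readout; potency for loss of cell viability measured by luminescence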
[20] = viability of HCT116 lacking mutant beta-catenin – cell-based, human colon tumor, dose response (AID 1045); assay type: functional;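 also: HCT116 colon tumor cells with beta catenin knocked out; cells exposed to compound for 60 hours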
[21] = biological target: T5, Insulin-degrading enzyme (Homo sapiens, UniProt P14735); assay: Dose Response: Fluorescence polarization-based cell-based high throughput dose response assay for inhibitors of insulin-degrading enzyme (IDE). [Related pubchem assays: 434962 (Primary screen (IDE inhibitors in singlicate)), 449730 (Counterscreen (Cytotoxicity in triplicate)), 435028 (Confirmation (IDE inhibitors in triplicate)), 434984 (Summary …; assay type: functional
T5 sequence (P14735 whole entry): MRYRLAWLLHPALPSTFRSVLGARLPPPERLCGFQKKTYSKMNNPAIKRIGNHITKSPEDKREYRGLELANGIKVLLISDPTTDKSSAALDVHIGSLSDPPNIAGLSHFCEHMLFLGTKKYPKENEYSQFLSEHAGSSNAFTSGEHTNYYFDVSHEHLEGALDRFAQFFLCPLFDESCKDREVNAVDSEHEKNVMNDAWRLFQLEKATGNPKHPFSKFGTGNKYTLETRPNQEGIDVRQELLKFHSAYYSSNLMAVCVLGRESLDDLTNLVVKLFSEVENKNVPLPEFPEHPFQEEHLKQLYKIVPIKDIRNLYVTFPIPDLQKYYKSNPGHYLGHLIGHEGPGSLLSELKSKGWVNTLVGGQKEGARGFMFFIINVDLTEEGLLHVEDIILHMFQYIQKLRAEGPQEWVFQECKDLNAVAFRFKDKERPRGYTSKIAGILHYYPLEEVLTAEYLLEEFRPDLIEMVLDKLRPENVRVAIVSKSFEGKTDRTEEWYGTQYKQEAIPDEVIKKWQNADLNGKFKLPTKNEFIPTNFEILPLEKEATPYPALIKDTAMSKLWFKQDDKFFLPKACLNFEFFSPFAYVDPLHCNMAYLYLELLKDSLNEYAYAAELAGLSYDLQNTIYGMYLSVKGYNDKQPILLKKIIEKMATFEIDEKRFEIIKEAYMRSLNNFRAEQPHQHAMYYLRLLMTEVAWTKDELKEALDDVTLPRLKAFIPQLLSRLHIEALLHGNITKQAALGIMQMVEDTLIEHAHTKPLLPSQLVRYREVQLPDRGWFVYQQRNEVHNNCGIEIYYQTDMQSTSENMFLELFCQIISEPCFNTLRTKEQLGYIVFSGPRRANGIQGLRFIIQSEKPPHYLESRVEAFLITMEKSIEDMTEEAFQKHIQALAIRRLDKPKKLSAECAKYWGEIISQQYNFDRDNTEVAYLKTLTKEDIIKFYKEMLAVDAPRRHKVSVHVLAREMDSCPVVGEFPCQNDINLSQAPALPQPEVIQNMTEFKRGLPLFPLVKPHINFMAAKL

[22] = biological target: T6, Zinc finger protein mex-5 (Caenorhabditis elegans, UniProt Q9XUB2); assay: potency of MEX-5 RNA-binding blockers – biochemical, C. elegans, fluorescence polarization, dose response (AID 1960)
T6 sequence (Q9XUB2 whole entry): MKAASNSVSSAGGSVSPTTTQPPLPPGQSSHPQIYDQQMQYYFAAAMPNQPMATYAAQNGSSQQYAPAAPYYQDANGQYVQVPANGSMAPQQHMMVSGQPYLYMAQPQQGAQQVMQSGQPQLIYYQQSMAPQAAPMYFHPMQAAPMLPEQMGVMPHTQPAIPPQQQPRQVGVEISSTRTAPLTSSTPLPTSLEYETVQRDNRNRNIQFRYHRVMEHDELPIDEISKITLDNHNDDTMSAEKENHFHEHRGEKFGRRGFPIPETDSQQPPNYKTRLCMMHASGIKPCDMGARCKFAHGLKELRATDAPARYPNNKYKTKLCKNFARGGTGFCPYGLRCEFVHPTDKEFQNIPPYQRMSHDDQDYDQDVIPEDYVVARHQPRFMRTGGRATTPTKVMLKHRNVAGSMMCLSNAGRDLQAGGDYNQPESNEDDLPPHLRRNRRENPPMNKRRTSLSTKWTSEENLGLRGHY

[23] = Counterscreen for IDE inhibitors: Luminescence-based cell-based high throughput dose response assay to identify compounds that are cytotoxic to HEK cells. [Related pubchem assays: 434962 (Primary screen (IDE inhibitors in singlicate)), 449730 (Counterscreen (Cytotoxicity in triplicate)), 435028 (Confirmation (IDE inhibitors in triplicate)) …; assay type: functional; conditions: HEK293
[24] = biological target: T7, RNA-binding protein pos-1 (Caenorhabditis elegans, UniProt G5EF15); assay: disruptors of C. elegans POS-1 RNA interaction – biochemical, fluorescence polarization, dose response (AID 1964);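 also: purified POS-1 fused to maltose binding protein made in E. coli; potency of compounds blocking POS-1 binding to fluorescent RNA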
T7 sequence (G5EF15 whole entry): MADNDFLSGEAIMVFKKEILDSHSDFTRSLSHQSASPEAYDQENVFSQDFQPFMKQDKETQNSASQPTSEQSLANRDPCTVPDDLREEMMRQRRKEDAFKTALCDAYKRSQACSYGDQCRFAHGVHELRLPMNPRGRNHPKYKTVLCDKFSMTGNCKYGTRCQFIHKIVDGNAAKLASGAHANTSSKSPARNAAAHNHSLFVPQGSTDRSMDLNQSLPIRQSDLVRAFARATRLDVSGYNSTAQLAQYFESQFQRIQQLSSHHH

[25] = biological target: T8, Mannose-6-phosphate isomerase (Homo sapiens, UniProt P34949); assay: MPI inhibition at elevated mannose 6-phosphate – biochemical, fluorescence intensity, high mannose 6-phosphate, primary screen (AID 1220)
T8 sequence (P34949 whole entry): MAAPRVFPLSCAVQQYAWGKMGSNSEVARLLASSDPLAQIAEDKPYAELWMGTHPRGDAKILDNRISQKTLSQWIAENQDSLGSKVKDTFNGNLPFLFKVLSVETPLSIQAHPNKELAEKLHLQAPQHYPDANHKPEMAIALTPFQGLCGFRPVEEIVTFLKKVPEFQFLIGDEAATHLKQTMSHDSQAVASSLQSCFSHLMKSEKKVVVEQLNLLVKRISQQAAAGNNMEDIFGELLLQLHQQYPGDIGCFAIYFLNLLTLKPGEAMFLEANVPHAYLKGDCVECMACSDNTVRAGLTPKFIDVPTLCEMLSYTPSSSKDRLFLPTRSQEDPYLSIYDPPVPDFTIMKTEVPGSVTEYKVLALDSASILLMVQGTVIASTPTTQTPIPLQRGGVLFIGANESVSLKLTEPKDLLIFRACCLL

Acyl-homoserine lactone acylase PvdQ, sequence (Q9I194 24-193 limits assumed): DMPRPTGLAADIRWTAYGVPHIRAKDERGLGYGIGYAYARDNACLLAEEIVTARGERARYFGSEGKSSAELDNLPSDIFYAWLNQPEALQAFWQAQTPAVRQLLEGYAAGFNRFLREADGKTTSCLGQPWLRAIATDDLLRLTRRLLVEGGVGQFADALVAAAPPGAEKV
Acyl-homoserine lactone acylase PvdQ, sequence (Q9I194 217-762 limits assumed): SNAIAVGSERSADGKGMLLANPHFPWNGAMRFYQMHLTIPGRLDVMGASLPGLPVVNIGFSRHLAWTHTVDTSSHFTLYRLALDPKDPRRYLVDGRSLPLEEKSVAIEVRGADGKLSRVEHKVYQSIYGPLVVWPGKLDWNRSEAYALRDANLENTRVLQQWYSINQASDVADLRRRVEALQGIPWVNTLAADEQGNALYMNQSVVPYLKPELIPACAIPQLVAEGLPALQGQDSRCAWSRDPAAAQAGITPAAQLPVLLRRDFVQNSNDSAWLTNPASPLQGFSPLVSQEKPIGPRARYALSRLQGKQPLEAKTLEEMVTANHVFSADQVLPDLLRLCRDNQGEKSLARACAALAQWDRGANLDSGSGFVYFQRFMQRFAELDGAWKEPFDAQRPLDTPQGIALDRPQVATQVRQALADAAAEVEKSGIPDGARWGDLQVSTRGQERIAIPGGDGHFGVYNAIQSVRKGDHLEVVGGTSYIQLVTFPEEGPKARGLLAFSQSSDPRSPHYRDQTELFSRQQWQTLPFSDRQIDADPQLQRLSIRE
X-box-binding protein 1, sequence (P17861 whole entry): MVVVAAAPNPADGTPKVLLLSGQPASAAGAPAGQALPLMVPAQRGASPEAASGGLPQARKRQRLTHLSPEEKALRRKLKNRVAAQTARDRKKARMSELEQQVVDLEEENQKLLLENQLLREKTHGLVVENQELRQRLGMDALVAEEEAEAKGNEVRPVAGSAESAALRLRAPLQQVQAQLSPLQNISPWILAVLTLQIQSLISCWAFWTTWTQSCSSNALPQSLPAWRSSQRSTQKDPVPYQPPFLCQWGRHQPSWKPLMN
T4 sequence (Q00975 whole entry): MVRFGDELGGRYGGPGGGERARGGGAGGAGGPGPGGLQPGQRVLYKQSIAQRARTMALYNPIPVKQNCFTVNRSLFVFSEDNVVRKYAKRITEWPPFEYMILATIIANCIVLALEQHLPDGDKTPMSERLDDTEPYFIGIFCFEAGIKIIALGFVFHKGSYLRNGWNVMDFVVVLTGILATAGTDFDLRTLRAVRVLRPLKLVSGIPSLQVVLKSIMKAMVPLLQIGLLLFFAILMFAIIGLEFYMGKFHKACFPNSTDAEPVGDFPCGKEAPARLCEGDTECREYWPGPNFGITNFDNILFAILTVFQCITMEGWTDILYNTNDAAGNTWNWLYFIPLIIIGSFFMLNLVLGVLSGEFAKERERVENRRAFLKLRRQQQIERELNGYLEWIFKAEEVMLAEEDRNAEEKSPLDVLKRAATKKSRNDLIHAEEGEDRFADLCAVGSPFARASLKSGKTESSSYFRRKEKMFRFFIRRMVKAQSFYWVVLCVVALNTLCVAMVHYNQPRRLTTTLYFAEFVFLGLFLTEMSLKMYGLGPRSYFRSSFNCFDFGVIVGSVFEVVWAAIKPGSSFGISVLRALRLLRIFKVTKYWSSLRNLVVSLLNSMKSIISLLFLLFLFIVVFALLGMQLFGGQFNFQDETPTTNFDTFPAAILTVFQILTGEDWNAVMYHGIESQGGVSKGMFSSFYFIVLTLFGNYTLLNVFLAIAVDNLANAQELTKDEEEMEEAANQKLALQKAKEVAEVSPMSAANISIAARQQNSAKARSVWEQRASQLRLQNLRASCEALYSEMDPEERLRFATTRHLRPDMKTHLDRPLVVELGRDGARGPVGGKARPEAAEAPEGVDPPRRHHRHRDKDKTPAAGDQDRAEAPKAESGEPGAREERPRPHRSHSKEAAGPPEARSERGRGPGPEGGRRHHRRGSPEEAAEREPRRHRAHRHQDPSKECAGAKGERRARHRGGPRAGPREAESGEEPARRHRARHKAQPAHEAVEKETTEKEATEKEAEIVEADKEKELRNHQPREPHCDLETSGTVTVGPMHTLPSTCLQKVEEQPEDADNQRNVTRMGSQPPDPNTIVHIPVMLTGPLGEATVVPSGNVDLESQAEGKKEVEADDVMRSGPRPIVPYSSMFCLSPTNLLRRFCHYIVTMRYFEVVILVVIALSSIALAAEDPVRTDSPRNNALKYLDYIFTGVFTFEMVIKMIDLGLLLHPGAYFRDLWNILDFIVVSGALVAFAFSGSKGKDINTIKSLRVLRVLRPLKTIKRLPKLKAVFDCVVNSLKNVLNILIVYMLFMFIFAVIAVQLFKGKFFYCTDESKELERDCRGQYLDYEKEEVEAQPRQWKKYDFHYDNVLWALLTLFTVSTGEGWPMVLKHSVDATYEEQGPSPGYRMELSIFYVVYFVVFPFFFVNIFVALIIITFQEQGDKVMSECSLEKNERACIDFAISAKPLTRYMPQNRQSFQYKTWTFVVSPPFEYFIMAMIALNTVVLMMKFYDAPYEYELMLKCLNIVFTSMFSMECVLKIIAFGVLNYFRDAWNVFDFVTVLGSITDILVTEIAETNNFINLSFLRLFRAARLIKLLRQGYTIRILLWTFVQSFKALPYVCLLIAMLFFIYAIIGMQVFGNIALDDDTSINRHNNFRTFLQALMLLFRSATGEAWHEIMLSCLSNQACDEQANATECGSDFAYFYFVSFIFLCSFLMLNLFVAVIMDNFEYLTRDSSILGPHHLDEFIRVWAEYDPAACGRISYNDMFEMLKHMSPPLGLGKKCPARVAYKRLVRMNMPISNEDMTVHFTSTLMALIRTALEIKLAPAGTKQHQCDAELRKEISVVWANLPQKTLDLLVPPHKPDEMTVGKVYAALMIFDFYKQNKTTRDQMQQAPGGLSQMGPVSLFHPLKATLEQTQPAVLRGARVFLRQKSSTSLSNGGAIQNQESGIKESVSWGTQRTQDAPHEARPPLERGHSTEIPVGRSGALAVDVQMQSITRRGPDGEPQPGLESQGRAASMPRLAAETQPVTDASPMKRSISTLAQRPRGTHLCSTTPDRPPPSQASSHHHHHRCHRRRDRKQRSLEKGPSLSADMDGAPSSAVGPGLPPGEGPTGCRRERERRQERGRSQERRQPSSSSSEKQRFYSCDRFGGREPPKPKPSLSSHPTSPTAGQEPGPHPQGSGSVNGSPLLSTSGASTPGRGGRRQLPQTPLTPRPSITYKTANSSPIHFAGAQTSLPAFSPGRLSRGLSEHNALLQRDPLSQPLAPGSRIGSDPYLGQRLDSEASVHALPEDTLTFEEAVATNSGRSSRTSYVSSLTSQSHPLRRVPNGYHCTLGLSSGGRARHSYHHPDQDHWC
T4 sequence (Q02410 whole entry): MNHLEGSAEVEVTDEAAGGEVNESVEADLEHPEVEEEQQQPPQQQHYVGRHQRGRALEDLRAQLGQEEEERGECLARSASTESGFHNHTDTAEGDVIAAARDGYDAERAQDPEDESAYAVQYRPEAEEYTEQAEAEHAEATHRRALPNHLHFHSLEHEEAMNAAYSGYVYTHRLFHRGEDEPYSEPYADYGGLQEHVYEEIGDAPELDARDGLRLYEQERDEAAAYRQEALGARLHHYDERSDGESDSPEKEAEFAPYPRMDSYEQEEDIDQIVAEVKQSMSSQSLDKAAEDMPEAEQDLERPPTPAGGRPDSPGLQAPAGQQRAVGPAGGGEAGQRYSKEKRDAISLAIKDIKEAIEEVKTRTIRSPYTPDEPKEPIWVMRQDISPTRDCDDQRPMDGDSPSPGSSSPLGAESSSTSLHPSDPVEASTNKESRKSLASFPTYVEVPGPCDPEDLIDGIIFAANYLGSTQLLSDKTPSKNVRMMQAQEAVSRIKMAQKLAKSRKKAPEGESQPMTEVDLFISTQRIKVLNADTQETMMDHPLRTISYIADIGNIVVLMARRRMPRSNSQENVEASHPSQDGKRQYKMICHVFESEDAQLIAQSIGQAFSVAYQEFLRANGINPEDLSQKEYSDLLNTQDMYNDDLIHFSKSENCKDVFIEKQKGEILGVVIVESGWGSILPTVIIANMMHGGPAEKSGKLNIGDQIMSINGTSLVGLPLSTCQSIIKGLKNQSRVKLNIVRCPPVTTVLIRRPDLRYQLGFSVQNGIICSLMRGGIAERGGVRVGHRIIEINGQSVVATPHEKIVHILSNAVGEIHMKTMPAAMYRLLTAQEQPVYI
C-C chemokine receptor type 6, sequence (P51684 whole entry): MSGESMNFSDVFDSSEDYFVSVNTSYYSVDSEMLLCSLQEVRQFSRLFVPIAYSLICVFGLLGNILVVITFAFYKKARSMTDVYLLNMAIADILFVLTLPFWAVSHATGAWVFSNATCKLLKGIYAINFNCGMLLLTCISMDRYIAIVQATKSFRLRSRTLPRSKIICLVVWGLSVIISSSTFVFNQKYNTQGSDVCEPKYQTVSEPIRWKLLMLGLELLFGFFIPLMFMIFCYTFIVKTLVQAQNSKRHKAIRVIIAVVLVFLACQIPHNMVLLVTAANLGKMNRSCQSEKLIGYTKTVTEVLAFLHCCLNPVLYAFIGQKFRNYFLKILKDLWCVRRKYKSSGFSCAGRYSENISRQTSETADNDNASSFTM

IC50 [7]: > 66.6 µM (inactive)
IC50 [8]: > 66.6 µM (inactive)
Compound: N#CC(=C1C=CC(=NO)C(Cl)=C1)c1ccc(Cl)cc1

Absolute IC50 (XBP1) [15]: < 10 µM
Compound: Cc1cc2c(cc1C)CSC(c1ccccc1O)SC2

IC50 [16]: > 56.8 µM (inactive)
IC50 [17]: 44.7 µM (active)
Compound: O=C(NCCCc1ccccc1)c1cc(-c2ccco2)nc2ccccc12

EC50 [18]: 5.52 µM (active)
Compound: CCOc1ccccc1OCCOc1ccccc1OC(C)C

More lines, now with the values behind:

Compound: Oc1cccc(/C=N/Nc2cccc3cccnc23)c1
EC50 [1]: > 67.5 µM (inactive)
IC50 [2]: > 67.5 µM (inactive)
EC50 [3]: > 67.5 µM (inactive)
EC50 [4]: > 67.5 µM (inactive)
EC50 [5]: > 100 µM (not active)

Compound: Cc1ccc(C(C#N)c2ccc(Cl)nn2)cc1 (stereo not given)
AC50 [6]: 1.6 µM (active)

Compound: CCOc1ccc(NC(=O)c2ccccn2)cc1
AC50 [9]: 0.999 µM (active)
AC50 [10]: > 52 µM (inactive)
AC50 [6]: > 100 µM (inactive)
AC50 [11]: > 52 µM (inactive)
AC50 [12]: 1.23 µM (active)
AC50 [13]: 4.4 µM (active)
AC50 [14]: 43.4 µM (active)

Compound: COc1ccc(C(CCNCc2ccc(F)cc2)c2ccc(F)cc2)cc1 (stereo not given)
EC50 [19]: 9.32 µM (active)
Absolute IC50 (XBP1) [15]: 10 µM
EC50 [20]: 7.18 µM (active)

Compound: O=C(C1=NN(c2ccccc2)C2C(=O)N(c3ccccc3Cl)C(=O)C12)c1ccccc1 (stereo not given)
IC50 [21]: > 6.21 µM (active)
EC50 [22]: > 300 µM (inconclusive)
IC50 [23]: > 55.7 µM (not active)
EC50 [24]: > 300 µM (not active)

Compound: COc1ccc(OCC(=O)Nc2ccc3oc(-c4ccncc4)nc3c2)cc1
EC50 [5]: > 100 µM (not active)

Compound: C/C(=N\O)C(=O)C(CN1CCCCC1)CN1CCCCC1
IC50 [7]: > 66.6 µM (inactive)
IC50 [8]: > 66.6 µM (inactive)
IC50 [25]: > 50 µM (not active)
